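Values below derive from 48-hour exposures of cells grown in 96-well plates, with endpoints linearly interpolated between the two concentrations bracketing the appropriate inhibition level. TGI denotes the concentration required for complete inhibition of growth.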
Columns and labels:
Assay in all cases: growth of human tumour cells (NCI), 48 h
[1] = tested on: 786-0 renal
[2] = tested on: KM12 colon
[3] = tested on: MOLT-4 leukemia
[4] = tested on: NCI-H23 lung
[5] = tested on: RPMI-8226 leukemia
[6] = tested on: SF-268 CNS
[7] = tested on: SK-OV-3 ovarian
[8] = tested on: SW-620 colon
[9] = tested on: UACC-257 melanoma
[10] = tested on: NCI/ADR-RES ovarian
[11] = tested on: PC-3 prostate
[12] = tested on: SR leukemia

Row | SMILES | TGI [1] | TGI [2] | TGI [3] | TGI [4] | TGI [5] | TGI [6] | TGI [7] | TGI [8] | TGI [9] | TGI [10] | TGI [11] | TGI [12]
1 | c1ccc(C2C3=C(Nc4ncnn42)c2ccccc2C3)cc1 (stereo unspecified) | 78.2 µM | > 100 µM | > 100 µM | 65.1 µM | > 100 µM | > 100 µM | > 100 µM | 17.4 µM | > 100 µM | – | – | –
2 | CCCc1cc(=O)c2c(C)c3[nH]c4ccc(Cl)cc4c3c(C)c2[nH]1 | 3.08 µM | 12.3 µM | > 100 µM | 10.5 µM | – | 24.1 µM | – | 4.29 µM | 4.74 µM | 10.2 µM | 14.7 µM | 4.93 µM
3 | CCOC(=O)C1Cc2[nH]c3ccccc3c2C(C)C1C (stereo unspecified) | 28.2 µM | 34.6 µM | 42 µM | 27.3 µM | – | 47.5 µM | 45.3 µM | 33.6 µM | 32.3 µM | – | – | 41.2 µM
4 | OCc1ccc2[n+](c1)CCC1c3ccccc3NC21 (stereo unspecified) | > 300 µM | > 300 µM | > 300 µM | > 300 µM | > 300 µM | > 300 µM | > 300 µM | > 300 µM | > 300 µM | – | – | > 300 µM
5 | CC(C)(C)C1=C(Br)C(Br)(C(C)(C)C)OP1(=O)c1ccccc1 (stereo unspecified) | > 100 µM | > 100 µM | – | > 100 µM | – | > 100 µM | > 100 µM | > 100 µM | > 100 µM | > 100 µM | > 100 µM | > 100 µM
6 | CC(=O)OCC(C)C1=C(O)C(=O)C2(C)C/C=C(/C)CC/C=C(\C)CCC(O)C(C)CCC12 (stereo unspecified) | 32 µM | 28.7 µM | 28.6 µM | 36.6 µM | 39.2 µM | 35.4 µM | – | 37.8 µM | 33.6 µM | 44 µM | 38.1 µM | 34.9 µM
7 | Cc1cc(N(CCC#N)CCC#N)ccc1/C=N/NC(=O)c1cc(Cl)ccc1O | > 100 µM | – | > 100 µM | > 100 µM | – | > 100 µM | > 100 µM | – | > 100 µM | > 100 µM | > 100 µM | > 100 µM
8 | COC(=O)CC(C(C(=O)OC)C(=O)OC)N1C(=O)OCC1c1ccccc1 (stereo unspecified) | > 100 µM | > 100 µM | > 100 µM | > 100 µM | > 100 µM | > 100 µM | > 100 µM | > 100 µM | > 100 µM | – | – | –
9 | Cn1cc2ccccc2c1-c1nc(N)nc(F)n1 | > 100 µM | > 100 µM | > 100 µM | > 100 µM | > 100 µM | > 100 µM | > 100 µM | > 100 µM | > 100 µM | – | – | > 100 µM
10 | CN1C(=O)N(c2ccccc2)C2(CCN(CC3COc4ccccc4O3)CC2)C1=O (stereo unspecified) | > 100 µM | > 100 µM | > 100 µM | > 100 µM | > 100 µM | > 100 µM | – | 36.4 µM | > 100 µM | > 100 µM | > 100 µM | > 100 µM
11 | CC(C)(C)c1ccc2c(c1)CNCCNCc1cc(C(C)(C)C)ccc1OCC1(CO2)COc2ccc(C(C)(C)C)cc2CNCCNCc2cc(C(C)(C)C)ccc2OC1 | 0.388 µM | 0.933 µM | 0.504 µM | 2.59 µM | 4.2 µM | 5.12 µM | – | 3.56 µM | 3 µM | 3.07 µM | 2.93 µM | –
12 | COc1ccc(C2Oc3c(cc(O)c(OC)c3C)[C@@H]2C)cc1OC (stereo partly specified) | > 100 µM | > 100 µM | > 100 µM | > 100 µM | > 100 µM | > 100 µM | > 100 µM | > 100 µM | > 100 µM | – | – | –
13 | CC(CN1c2ccccc2Sc2ccccc21)N(C)C (stereo unspecified) | 27.9 µM | 37.6 µM | 40.7 µM | 38.2 µM | – | 33.5 µM | 32.6 µM | 45 µM | 39.4 µM | 30.5 µM | 31.2 µM | 40.9 µM
14 | COc1ccc(C(C#N)NNC(=O)c2ccccc2O)cc1OC (stereo unspecified) | > 100 µM | > 100 µM | > 100 µM | 28.4 µM | > 100 µM | > 100 µM | > 100 µM | > 100 µM | > 100 µM | – | – | > 100 µM
15 | COC(=O)C(CCC#N)(CCC#N)C(=O)OC | > 100 µM | > 100 µM | > 100 µM | > 100 µM | > 100 µM | > 100 µM | > 100 µM | > 100 µM | > 100 µM | – | – | > 100 µM
16 | Cc1nc2c(nc1Cl)nc(Oc1ccc(Cl)cc1)c1ccccc12 | 38.3 µM | > 100 µM | > 100 µM | 85 µM | > 100 µM | > 100 µM | > 100 µM | > 100 µM | > 100 µM | – | – | > 100 µM
17 | O=c1[nH]n2c(=O)cc[nH]c2c1-c1nnns1 | > 100 µM | > 100 µM | > 100 µM | > 100 µM | > 100 µM | > 100 µM | > 100 µM | > 100 µM | – | – | – | > 100 µM
18 | NC(N)=NS(=O)(=O)c1ccc(NCc2c3ccccc3[n+]([O-])c3ccccc23)cc1 | > 100 µM | > 100 µM | 43.8 µM | > 100 µM | 74.3 µM | 86.6 µM | > 100 µM | > 100 µM | > 100 µM | – | – | –

From PubChem BioAssay (NCI)
